{
  "source": "patent US10518266B2",
  "about": "“Microtiter plate and uses thereof” (ONEXIO BIOSYSTEMS LLC, priority 2016, dated 2019)",
  "type_in_all_cases": "cell-based",
  "key": {"HEK293 cells [1]": {"tested_on": "HEK293 cells", "experiment": "Conferred cytotoxicity assay, HEK293 cells in co-culture with primary human hepatocytes in the device", "settings": "primary human hepatocytes (PHH) as bioactivator vs HEK293 mono-culture; FIG. 18a,b"}, "[2]": {"tested_on": "ER-transactivation in MVLNs", "experiment": "ER-transactivation in MVLN luciferase cells co-cultured with HepaRG cells in the device", "settings": "MVLN co-cultured with HepaRG vs mono-culture; FIG. 18C"}, "HEK293 cells [3]": {"tested_on": "HEK293 cells"}, "[4]": {"tested_on": "estrogen receptor driven luciferase reporter protein stably expressed in the MVLN cell line", "experiment": "MVLN estrogen receptor driven luciferase reporter assay, co-culture with HepG2 cells in the device"}},
  "note": "Where two headings read alike, the source gives them in different places.",
  "data": [
    {"compound": "COc1cccc2c1C(=O)c1c(O)c3c(c(O)c1C2=O)C[C@@](O)(C(=O)CO)C[C@@H]3O[C@H]1C[C@H](N)[C@H](O)[C@H](C)O1", "note": "[doxorubicin]", "values": [
      {"measurement": "conferred toxicity to HEK293 cells", "setting": "HEK293 cells [1]", "result": "conferred toxicity"}
    ]},
    {"compound": "Oc1ccc(Cc2ccccc2)cc1", "note": "[4-benzylphenol]", "values": [
      {"measurement": "ER-transactivation in MVLNs (metabolic competence of the device)", "setting": "[2]", "result": "shows competence"}
    ]},
    {"compound": "COc1cc2c(c3oc(=O)c4c(c13)CCC4=O)[C@@H]1C=CO[C@@H]1O2", "note": "[aflatoxin]", "values": [
      {"measurement": "conferred toxicity to HEK293 cells", "setting": "HEK293 cells [3]", "result": "conferred toxicity"}
    ]},
    {"compound": "C[C@]12CC[C@H]3[C@@H](CCC4=CC(=O)CC[C@@]43C)[C@@H]1CC[C@@H]2O", "note": "[testosterone]", "values": [
      {"measurement": "MVLN reporter activity", "setting": "[4]", "result": "activates MVLN reporter activity"}
    ]}
  ]
}
